Counter-ions that a name gives are not always drawn. Like-named read-outs stand apart in the source and are kept apart here.
Tests used:
[1] = cited from earlier work
[2] = manufacturers' literature; cited from earlier work
[3] = PEL; details: Honeywell internal PEL
Excerpt: Table 1 and Table 2, below, list the properties of 1233zd(E) and 1234ze(E) compared to other commonly used blowing agents.
Table 3A and Table 3B list the properties of 1233zd(E) compared to some non-flammable blowing agents, such as 245fa and 141b, and various flammable blowing agents, such as methyl formate and hydrocarbons. […] Note that the global warming potential (GWP) of 1233zd(E) of less than 5 is the lowest among all blowing agents compared. Moreover, the GWP of 1233zd(E) is more than two orders of magnitude lower than that of the currently utilized 245fa, and is more than one order of magnitude lower than the present limitations in the EU F-Gas Regulation.

| SMILES | LFL/UFL (Vol % in Air) [1] | PEL [2] [ppm] | PEL [3] |
| --- | --- | --- | --- |
| FC(Cl)Cl [compound 22, dichlorofluoromethane] | None | 1000 | – |
| FC(F)(F)/C=C/Cl [1233zd(E), trans-1-chloro-3,3,3-trifluoropropene] | None | 300 | 300^5 |
| C1CCCC1 [C-C5, cyclopentane] | 1.5-8.7 Vol % | – | – |
| F/C=C/C(F)(F)F [1234ze(E), trans-1,3,3,3-tetrafluoropropene] | None | 1000 | – |
| CC(F)(F)CC(F)(F)F [365mfc, 1,1,1,3,3-pentafluorobutane] | 3.6-13.3 Vol % | 1000 | – |
| CC(F)(F)Cl [142b, 1-chloro 1,1-difluoroethane] | 8.0-15.4 Vol % | 1000 | – |
| FC(F)CC(F)(F)F [245fa, 1,1,1,3,3-pentafluoropropane] | None | 300 | – |
| CC(F)(Cl)Cl [141b, 1,1-dichloro-1-fluoroethane] | 7.6-17.7 Vol % | 500 | – |
| COC=O [Methyl Formate, methyl formate] | 5.0-23.0 Vol % | 600 | – |
| CCCCC [normal pentane, n-pentane] | 1.4-8.3 Vol % | 600 | – |
| CCC(C)C [isopentane] | 1.4-8.3 Vol % | 600 | – |
